target: T1, Nav1.8 sodium channel (Homo sapiens, UniProt Q9Y5Y9); experiment: Blocking activity against sodium channel 1.8 (Nav1.8), whole-cell patch-clamp, inhibition rate; type: cell-based; settings: not given
T1 construct: host or cells: CHO
Experimental: Experimental objective: The effects of the compounds on the current of the voltage-gated sodium channel (NaV) 1.8 subtype were detected by patch-clamp technique • 2. […] When the cells were detached from the bottom of the dish, about 5 mL of preheated complete medium at 37°C was added. The cell suspension was gently pipetted up and down to separate the aggregated cells. The cell suspension was transferred to a sterile centrifuge tube and centrifuged at 1000 rpm for 5 min to collect the cells. […] First, the voltage was stepped from -130 mV to -10 mV in 10 mV increments for 5 s, and then a 0 mV depolarizing pulse was applied to obtain the half-inactivation voltage (Vhalf). The resting state and half-inactivated state of the sodium current were detected by using a double-pulse protocol. First, the first depolarizing pulse (TP1) was applied to 0 mV for 50 ms to detect the sodium current in the resting state. Then, the voltage was adjusted to Vhalf and maintained for 5 s, followed by restoration of the voltage to -120 mV and maintenance for 20 ms, after which the second depolarizing pulse (TP2) was applied to 0 mV for 50 ms to detect the sodium current in the half-inactivated state. Finally, the voltage was restored to the clamping voltage of -120 mV. Data were repeatedly collected every […] to observe the effect of the drug on the peak values of sodium currents in the two different states. Experimental data were collected by the EPC 10 amplifier (HEKA) and stored in the PatchMaster (HEKA) software. • (2) During patch clamp operation, capillary glass tubes were first pulled into recording electrodes using a microelectrode puller, then the electrodes filled with intracellular solution were installed into the microelectrode holder. Under an inverted microscope, the micromanipulator was used to bring the recording electrode into contact with the cell, and negative pressure suction was applied to form a GΩ seal. At this time, fast capacitance compensation was performed, and then negative pressure was continuously applied to rupture the cell membrane and form the whole-cell recording mode. Finally, slow capacitance compensation was performed, and related parameters were recorded. Leak compensation was not applied. • (3) When the sodium current of whole-cell recording became stable, drug administration was started, and each drug concentration was applied for 5 min (or until the current became stable) before the next concentration was tested. The coverslip coated with cells was placed in the recording bath under an inverted microscope, and the blank control external solution and the test compound working solution were perfused through the recording bath in sequence from low concentration to high concentration by gravity, thereby acting on the cells, while a peristaltic pump was used for liquid exchange during recording. The current detected in the external solution without compounds for each cell was used as its own control group. Each concentration was independently tested twice. All electrophysiological experiments were conducted at room temperature.
First, the current after the effect of each drug concentration and the blank control current were normalized, then the inhibition rate corresponding to each drug concentration was calculated, that is, (1-Icompound /Icontrol), and the mean, standard deviation (SD), and standard error (SE) of the inhibition rate for each concentration were calculated, and the data were expressed as mean ± SE.

T1 sequence (Q9Y5Y9 whole entry): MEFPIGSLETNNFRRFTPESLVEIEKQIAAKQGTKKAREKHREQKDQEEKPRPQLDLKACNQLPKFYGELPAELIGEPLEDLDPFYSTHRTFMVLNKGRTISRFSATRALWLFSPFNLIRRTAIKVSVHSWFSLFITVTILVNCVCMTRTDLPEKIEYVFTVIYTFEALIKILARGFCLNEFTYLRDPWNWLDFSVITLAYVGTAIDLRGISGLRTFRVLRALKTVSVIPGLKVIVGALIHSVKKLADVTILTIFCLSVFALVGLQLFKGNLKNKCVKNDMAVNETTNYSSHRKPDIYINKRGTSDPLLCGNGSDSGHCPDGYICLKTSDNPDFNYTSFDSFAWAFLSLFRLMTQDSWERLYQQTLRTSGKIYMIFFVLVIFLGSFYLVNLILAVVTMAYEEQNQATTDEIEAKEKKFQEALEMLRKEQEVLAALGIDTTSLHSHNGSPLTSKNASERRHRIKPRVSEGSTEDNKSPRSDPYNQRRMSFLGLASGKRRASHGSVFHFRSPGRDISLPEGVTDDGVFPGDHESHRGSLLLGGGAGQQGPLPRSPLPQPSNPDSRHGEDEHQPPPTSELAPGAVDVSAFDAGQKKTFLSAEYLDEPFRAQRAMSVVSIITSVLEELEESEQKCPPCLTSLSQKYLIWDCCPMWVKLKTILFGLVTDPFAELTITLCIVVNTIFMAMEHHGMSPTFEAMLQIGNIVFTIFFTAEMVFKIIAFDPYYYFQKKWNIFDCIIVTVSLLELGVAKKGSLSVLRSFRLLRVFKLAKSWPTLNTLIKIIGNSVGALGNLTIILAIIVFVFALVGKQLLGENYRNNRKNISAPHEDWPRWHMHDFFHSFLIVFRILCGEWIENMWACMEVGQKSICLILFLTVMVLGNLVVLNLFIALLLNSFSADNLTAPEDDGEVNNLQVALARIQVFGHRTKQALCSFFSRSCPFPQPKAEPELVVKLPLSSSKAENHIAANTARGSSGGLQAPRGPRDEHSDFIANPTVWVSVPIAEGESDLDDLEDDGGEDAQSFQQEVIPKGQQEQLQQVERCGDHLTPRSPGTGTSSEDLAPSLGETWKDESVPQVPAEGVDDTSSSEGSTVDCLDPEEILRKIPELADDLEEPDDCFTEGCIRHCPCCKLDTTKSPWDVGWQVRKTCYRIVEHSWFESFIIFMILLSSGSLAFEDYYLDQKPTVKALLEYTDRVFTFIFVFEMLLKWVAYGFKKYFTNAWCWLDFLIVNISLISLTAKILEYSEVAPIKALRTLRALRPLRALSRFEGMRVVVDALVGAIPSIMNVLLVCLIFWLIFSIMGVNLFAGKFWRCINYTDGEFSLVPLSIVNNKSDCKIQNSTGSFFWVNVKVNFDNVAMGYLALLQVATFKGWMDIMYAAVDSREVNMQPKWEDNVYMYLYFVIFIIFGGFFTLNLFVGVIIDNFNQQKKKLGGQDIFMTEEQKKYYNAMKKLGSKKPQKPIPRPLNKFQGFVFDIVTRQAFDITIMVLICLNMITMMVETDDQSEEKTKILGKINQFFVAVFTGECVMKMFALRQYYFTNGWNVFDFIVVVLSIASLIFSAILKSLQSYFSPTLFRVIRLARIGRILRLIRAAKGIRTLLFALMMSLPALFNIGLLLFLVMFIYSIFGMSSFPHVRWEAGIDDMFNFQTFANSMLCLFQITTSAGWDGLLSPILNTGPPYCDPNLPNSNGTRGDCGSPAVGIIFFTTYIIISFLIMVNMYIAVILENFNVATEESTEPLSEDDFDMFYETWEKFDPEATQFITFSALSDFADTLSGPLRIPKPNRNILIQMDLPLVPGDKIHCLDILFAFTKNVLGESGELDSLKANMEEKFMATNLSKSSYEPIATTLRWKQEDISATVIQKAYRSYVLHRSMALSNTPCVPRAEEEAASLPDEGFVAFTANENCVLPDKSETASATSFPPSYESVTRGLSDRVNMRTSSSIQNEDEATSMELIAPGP

Question: COc1c([C@H]2[C@H](C(=O)Nc3ccc(C(F)(F)F)c(C(=N)NO)c3)O[C@@](C)(C(F)(F)F)[C@H]2C)ccc(F)c1F [Example 12] was tested. Which “Inhibition rate (%)” value did it give?
Answer: 76.58%

Question: COc1c([C@H]2[C@H](C(=O)Nc3cc[n+]([O-])c(C(=N)NO)c3)O[C@@](C)(C(F)(F)F)[C@H]2C)ccc(F)c1F [Example 8] was tested. Which “Inhibition rate (%)” value did it give?
Answer: 90.96%

Question: How did the “Inhibition rate (%)” value turn out when COc1c([C@H]2[C@H](C(=O)Nc3ccc(F)c(C(=N)NO)c3F)O[C@@](C)(C(F)(F)F)[C@H]2C)ccc(F)c1F [Example 15] was run?
Answer: 56.23%

Question: With COc1c(C2C(C(=O)Nc3ccc(F)c(C(=N)NC#N)c3)OC(C)(C(F)(F)F)C2C)ccc(F)c1F (centres unmarked) [Example 16] as the compound, how does the “Inhibition rate (%)” value read?
Answer: 95.94%

Question: CCONC(=O)c1cc(NC(=O)[C@@H]2O[C@@](C)(C(F)(F)F)[C@@H](C)[C@H]2c2ccc(F)c(F)c2OC)ccn1 [Example 2] was tested. Which “Inhibition rate (%)” value did it give?
Answer: 76.36%

Question: Which “Inhibition rate (%)” value does the source give for COc1c([C@H]2[C@H](C(=O)Nc3ccnc(C(=O)NN)c3)O[C@@](C)(C(F)(F)F)[C@H]2C)ccc(F)c1F [Example 5] here?
Answer: 50.04%

Question: For COc1c([C@H]2[C@H](C(=O)Nc3cc(C(=N)NO)c(F)cc3F)O[C@@](C)(C(F)(F)F)[C@H]2C)ccc(F)c1F [Example 14], which “Inhibition rate (%)” value is on record?
Answer: 84.01%

Question: With COc1c([C@H]2[C@H](C(=O)Nc3cc(F)c(F)c(C(=N)NO)c3)O[C@@](C)(C(F)(F)F)[C@H]2C)ccc(F)c1F [Example 13] as the compound, how does the “Inhibition rate (%)” value read?
Answer: 89.85%

Question: COc1c([C@H]2[C@H](C(=O)Nc3ccc(F)c(C(=O)NO)c3)O[C@@](C)(C(F)(F)F)[C@H]2C)ccc(F)c1F [Example 9] was tested. Which “Inhibition rate (%)” value did it give?
Answer: 97.24%

same assay, conditions: CHO cell line stably expressing Nav1.8; patch-clamp; test concentration not given

Question: How did the “Inhibition rate (%)” value turn out when CNNC(=O)c1cc(NC(=O)[C@@H]2O[C@@](C)(C(F)(F)F)[C@@H](C)[C@H]2c2ccc(F)c(F)c2OC)ccn1 [Example 6] was run?
Answer: 71.63%

Question: With CONC(=O)c1cc(NC(=O)[C@@H]2O[C@@](C)(C(F)(F)F)[C@@H](C)[C@H]2c2ccc(F)c(F)c2OC)ccn1 [Example 1] as the compound, how does the “Inhibition rate (%)” value read?
Answer: 80.08%

Source: patent EP4775574A1, “FURAN RING-CONTAINING COMPOUND, PHARMACEUTICAL COMPOSITION THEREOF, AND USE THEREOF” (Wuhan Xirui Pharmaceutical Technology Co., Ltd, priority 2023, dated 2025)
